One substance from patent publication US20070009438A1, “Method for diagnosing diabetes type 2 using standardized mixed meal and calculated index values” (DiaMedica Inc., priority 2003, published 2007) can be followed below.

A short description of the assay: rapid insulin sensitivity test (RIST) in human volunteers before and after a standardized test meal. It counts as in vivo. Particulars: 50 mU/kg insulin bolus i.v., average from 5 subjects. The protocol: Human volunteers were fasted overnight and submitted to a RIST. A stable glycemic baseline level was established by determining three consecutive stable venous glucose concentrations obtained at 5-minute intervals. […] Arterialized venous glucose concentrations were determined at 2-minute intervals and a variable glucose infusion pump was adjusted to maintain a constant blood glucose level. After completion of the first RIST index, a standardized meal consisting of a wheat-based biscuit containing 50 grams of carbohydrate was consumed within a 10-minute period. Venous glucose measurements were determined at 5-minute intervals until a new stable baseline was obtained whereupon a second RIST was carried out.
In FIG. 6, the difference between the results is plotted and is attributed to HISS action. […] Thus, the test meal provided a sufficient feeding signal to allow HISS release.

For the substance insulin, the “RIST index (glucose disposal in response to the insulin bolus)” value is, setting by setting: (human subjects after test meal (wheat-based biscuit, 50 grams of carbohydrate)) 502 mg/kg; (human subjects fasted overnight) 180 mg/kg.
